# Results published in US7960584B2, “Compounds, isomer thereof, or pharmaceutically acceptable salts thereof as vanilloid receptor antagonist; and pharmaceutical compositions containing the same” (Amorepacific Corporation, priority 2005, dated 2011).
# Target: T1, vanilloid receptor (Rattus norvegicus, UniProt O35433)
# T1 construct: DRG nerve cells from the primary culture of 2 days were equilibrated; endogenous in cells; host or cells: primary culture of dorsal root ganglion neurons from neonatal SD rats
# T1 sequence (O35433 whole entry): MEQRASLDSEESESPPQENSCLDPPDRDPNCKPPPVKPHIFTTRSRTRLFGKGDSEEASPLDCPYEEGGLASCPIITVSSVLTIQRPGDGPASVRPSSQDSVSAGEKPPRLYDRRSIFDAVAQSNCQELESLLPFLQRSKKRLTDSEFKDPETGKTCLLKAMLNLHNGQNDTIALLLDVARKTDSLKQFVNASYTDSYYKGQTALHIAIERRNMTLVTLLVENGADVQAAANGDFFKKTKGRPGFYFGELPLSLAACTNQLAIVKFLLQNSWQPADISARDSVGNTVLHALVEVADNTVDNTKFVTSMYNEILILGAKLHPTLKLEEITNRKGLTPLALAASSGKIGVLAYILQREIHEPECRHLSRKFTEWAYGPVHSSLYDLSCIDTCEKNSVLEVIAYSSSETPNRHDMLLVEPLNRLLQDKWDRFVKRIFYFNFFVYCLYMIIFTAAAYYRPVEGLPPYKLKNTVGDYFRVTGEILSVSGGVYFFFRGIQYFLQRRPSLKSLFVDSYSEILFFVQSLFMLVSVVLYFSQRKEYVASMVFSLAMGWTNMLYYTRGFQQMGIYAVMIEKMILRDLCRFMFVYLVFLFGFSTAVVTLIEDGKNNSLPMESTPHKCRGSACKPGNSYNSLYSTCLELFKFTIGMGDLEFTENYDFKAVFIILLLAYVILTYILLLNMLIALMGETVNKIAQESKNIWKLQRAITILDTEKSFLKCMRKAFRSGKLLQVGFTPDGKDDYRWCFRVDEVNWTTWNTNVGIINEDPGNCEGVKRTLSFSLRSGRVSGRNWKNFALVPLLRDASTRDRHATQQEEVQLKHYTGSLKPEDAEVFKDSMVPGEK
# Experiment: 45Ca influx test in primary cultured DRG neurons (capsaicin-induced calcium uptake)
# Format: cell-based
# Conditions: neonatal SD rat DRG neurons; capsaicin 0.5 μM; 45Ca 10 μCi/ml; 10 min at room temperature
# Method: 1) Separation of Spinal Dorsal Root Ganglia (DRG) in Newborn Rats and Primary Culture Thereof
# Neonatal (2-3 day old or younger than 2-3 day old) SD rats were put in ice for 5 minutes to anesthetize and disinfected with 70% ethanol. DRG of all part of spinal cord were dissected (Wood et al., 1988, J. Neurosci. 8, pp 3208-3220) and collected in DME/F12 medium to which 1.2 g/l sodium bicarbonate, 50 mg/l gentamycin were added. The DRG were incubated sequentially at 37° C. for 30 min in 200 U/ml collagenase and 2.5 mg/ml trypsin, separately. The ganglia were washed twice with DME/F12 medium supplemented with 10% horse serum, triturated through a fire-polished Pasteur pipette, filtered through Nitex 80 membrane to obtain single cell suspension and the suspension was washed once more. This was subjected to centrifugation, then resuspended in cell culture medium at certain level of cell density. As the cell culture medium, DME/F12 medium supplemented with 10% horse serum was diluted with identical medium conditioned by C6 glioma cells 2 days on a confluent monolayer (1:1), and NGF (Nerve Growth Factor) was added to adjust 200 ng/ml as final concentration. After the cells were grown 2 days in medium where cytosine arabinoside (Ara-C, 100 μM) was added to kill dividing nonneuronal cells, medium was changed to one without Ara-C. The resuspended cells were plated at a density of 1500-2000 neurons/well onto Terasaki plates previously coated with 10 μg/ml poly-D-ornithine.
# 2) ^45Ca Influx Experiments
# DRG nerve cells from the primary culture of 2 days were equilibrated by washing 4 times with HEPES (10 mM, pH 7.4)-buffered Ca^2+, Mg^2+-free HBSS (H-HBSS). The solution in each well was removed from the individual well. Medium containing the test compound plus capsaicin (final concentration 0.5 μM) and ^45Ca (final concentration 10 μCi/ml) in H-HBSS was added to each well and incubated at room temperature for 10 mins. Terasaki plates were washed five times with H-HBSS and dried at room temperature. To each well, 0.3% SDS (10 μl) was added to elute ^45Ca. After the addition of scintillation cocktail of into each well, the amount of ^45Ca influx into neuron was measured by counting radioactivity.
row,IC50 [nM],SMILES
1,260,"CC(C)(C)c1ccc(/C=C/C(=O)NCc2ccc(NS(C)(=O)=O)c(Cl)c2)cc1 [Example 2, 3-(4-t-Butyl-phenyl)-N-(3-chloro-4-methanesulfonylamino-benzyl)-acrylamide]"
2,290,"Cc1cc(CNC(=O)/C=C/c2ccc(C(C)(C)C)cc2)ccc1NS(C)(=O)=O [Example 3, 3-(4-t-Butyl-phenyl)-N-(3-methyl-4-methanesulfonylamino-benzyl)-acrylamide]"
3,310,"CC(C)(C)c1ccc(/C=C/C(=O)NCc2cc(F)c(NS(C)(=O)=O)c(F)c2)cc1 [Example 4, 3-(4-t-Butyl-phenyl)-N-(3,5-difluoro-4-methanesulfonylamino-benzyl)-acrylamide]"
4,210,"CC(C)(C)c1ccc(/C=C/C(=O)NCc2cc(F)c(NS(C)(=O)=O)cc2F)cc1 [Example 5, 3-(4-t-Butyl-phenyl)-N-(2,5-difluoro-4-methanesulfonylamino-benzyl)-acrylamide]"
5,350,"CC(C)(C)c1ccc(/C=C/C(=O)NCc2cc(Cl)c(NS(C)(=O)=O)c(I)c2)cc1 [Example 6, 3-(4-t-Butylphenyl)-N-(3-chloro-5-iodo-4-methanesulfonylamino-benzyl)acrylamide]"
6,360,"Cc1cc(CNC(=O)/C=C/c2ccc(C(C)(C)C)cc2)cc(Cl)c1NS(C)(=O)=O [Example 7, 3-(4-t-Butyl-phenyl)-N-(3-chloro-4-methanesulfonylamino-5-methylbenzyl)acrylamide]"
7,180,"CC(C)(C)c1ccc(/C=C/C(=O)NCc2cc(F)c(NS(C)(=O)=O)c(I)c2)cc1 [Example 8, 3-(4-t-butylphenyl)-N-(3-fluoro-5-iodo-4-methanesulfonylaminobenzyl)acrylamide]"
8,360,"Cc1cc(CNC(=O)/C=C/c2ccc(C(C)(C)C)cc2)cc(F)c1NS(C)(=O)=O [Example 9, 3-(4-t-Butyl-phenyl)-N-(3-fluoro-4-methanesulfonylamino-5-methyl-benzyl)-acrylamide]"
9,440,"C/C(=C\c1ccc(C(C)(C)C)cc1)C(=O)NCc1ccc(NS(C)(=O)=O)cc1 [Example 10, 3-(4-t-butylphenyl)-N-(4-methanesulfonylaminobenzyl)-2-methyl-acrylamide]"
10,46,"C/C(=C\c1ccc(C(C)(C)C)cc1)C(=O)N[C@H](C)c1ccc(NS(C)(=O)=O)cc1 [Example 11, 3-(4-t-Butylphenyl)-N-[1-(R)-(4-methanesulfonylaminophenyl)ethyl]-2-methylacrylamide]"
11,120,"C/C(=C\c1ccc(C(C)(C)C)cc1)C(=O)NCc1ccc(NS(C)(=O)=O)c(F)c1 [Example 12, 3-(4-t-Butylphenyl)-N-(3-fluoro-4-methanesulfonylaminobenzyl)-2-methylacrylamide]"
12,150,"C/C(=C\C(=O)NCc1ccc(NS(C)(=O)=O)c(F)c1)c1ccc(C(C)(C)C)cc1 [Example 13, 3-(4-t-Butyl-phenyl)-but-2-enoic acid 3-fluoro-4-methanesulfonylamino-benzylamide]"
13,41,"C/C(=C\c1ccc(C(C)(C)C)cc1)C(=O)N[C@H](C)c1ccc(NS(C)(=O)=O)c(F)c1 [Example 14, 3-(4-t-Butyl-phenyl)-N-[1-(3-fluoro-4-methanesulfonylaminophenyl)ethyl]-2-methylacrylamide]"
14,590,"CC(C)(C)c1ccc(C#CC(=O)NCc2ccc(NS(C)(=O)=O)cc2)cc1 [Example 15, 3-(4-t-butylphenyl)-N-[4-(methanesulfonylamino)benzyl]propiolicamide]"
15,100,"C[C@@H](NC(=O)C#Cc1ccc(C(C)(C)C)cc1)c1ccc(NS(C)(=O)=O)cc1 [Example 16, 3-(4-t-butylphenyl)-N-[1-(R)-(4-methanesulfonylaminophenyl)ethyl]propiolicamide]"
16,290,"CC(C)(C)c1ccc(CNC(=O)NCc2cc(F)c(NS(C)(=O)=O)c(I)c2)cc1 [Example 17, N-{4-[3-(4-t-butylbenzyl)ureidomethyl]-2-fluoro-6-iodophenyl}methanesulfonamide]"
17,530,"CC(C)(C)c1ccc(CNC(=O)NCc2cc(I)c(NS(C)(=O)=O)cc2Cl)cc1 [Example 18, N-{4-[3-(4-t-butylbenzyl)ureidomethyl]-5-chloro-2-Iodophenyl}methanesulfonamide]"
18,150,"CCc1cc(CNC(=O)NCc2ccc(C(C)(C)C)cc2)cc(F)c1NS(C)(=O)=O [Example 19, N-{4-[3-(4-t-butylbenzyl)ureidomethyl]-2-ethyl-6-fluorophenyl}methanesulfonamide]"
19,83,"Cc1cc(CNC(=O)NCc2ccc(C(C)(C)C)cc2)ccc1NS(C)(=O)=O [Example 21, N-{4-[3-(4-t-butylbenzyl)ureidomethyl]-2-methylphenyl}methane sulfonamide]"
20,240,"CC(C)(C)c1ccc(CNC(=O)NCc2ccc(NS(C)(=O)=O)c(Cl)c2)cc1 [Example 22, N-{4-[3-(4-t-butylbenzyl)ureidomethyl]-2-chlorophenyl}methane sulfonamide]"
21,240,"CC(C)(C)c1ccc(CNC(=O)NCc2ccc(NS(C)(=O)=O)c([N+](=O)[O-])c2)cc1 [Example 23, N-{4-[3-(4-t-butylbenzyl)ureidomethyl]-2-nitrophenyl}methane sulfonamide]"
22,390,"CC(C)(C)c1ccc(CNC(=O)NCc2ccc(NS(C)(=O)=O)c(I)c2)cc1 [Example 24, N-{4-[3-(4-t-Butyl-benzyl)-ureidomethyl]-2-iodo-phenyl}-methanesulfonamide]"
23,470,"CC(C)(C)c1ccc(CNC(=O)NCc2cc(F)c(NS(C)(=O)=O)c(F)c2)cc1 [Example 25, N-{4-[3-(4-t-Butyl-benzyl)-ureidomethyl]-2,6-difluoro-phenyl}-methanesulfonamide]"
24,560,"CC(C)(C)c1ccc(CNC(=O)NCc2cc(F)c(NS(C)(=O)=O)cc2F)cc1 [Example 26, N-{4-[3-(4-t-Butyl-benzyl)-ureidomethyl]-2,5-difluoro-phenyl}-methanesulfonamide]"
25,190,"Cc1cc(CNC(=O)NCc2ccc(C(C)(C)C)cc2)cc(Cl)c1NS(C)(=O)=O [Example 27, N-{4-[3-(4-t-Butylbenzyl)ureidomethyl]-2-chloro-6-methylphenyl}methanesulfonamide]"
26,290,"CCc1cc(CNC(=O)NCc2ccc(C(C)(C)C)cc2)c(Cl)cc1NS(C)(=O)=O [Example 28, N-{4-[3-(4-t-Butylbenzyl)-ureidomethyl]-5-chloro-2-ethylphenyl}methanesulfonamide]"
27,73,"Cc1cc(CNC(=O)NCc2ccc(C(C)(C)C)cc2)cc(F)c1NS(C)(=O)=O [Example 29, N-{4-[3-(4-t-Butyl-benzyl)-ureidomethyl]-2-fluoro-6-methyl-phenyl}-methanesulfonamide]"

# System: Male ICR mice
# Experiment: Analgesic activity test: mouse writhing test induced with phenyl-p-quinone
# Format: in vivo
# Conditions: dose 1 mg/kg intraperitoneally 30 min before phenyl-p-quinone 4.5 mg/kg i.p.; writhes counted 6-12 min after
# Method: 2. Analgesic Activity Test: Mouse Writhing Test by Inducing with Phenyl-p-quinone
# Male ICR mice (mean body weight 25 g) were maintained in a controlled lighting environment (12 h on/12 h off) for experiment. Animals received an intraperitoneal injection of 0.3 ml of the chemical irritant phenyl-p-quinone (dissolved in saline containing 5% ethanol to be a dose of 4.5 mg/kg) and 6 mins later, the number of abdominal constrictions was counted in the subsequent 6 mins period. Animals (10 animals/group) received 0.2 ml of test compounds solution in vehicle of ethanol/Tween 80/saline (10/10/80) intraperitoneally 30 min before the injection of phenyl-p-quinone. A reduction in the number of writhes responding to the test drug compound relative to the number responding in saline control group was considered to be indicative of an analgesic effect. Analgesic effect was calculated by % inhibition equation (% inhibition=(C−T)/C×100), wherein C and T represent the number of writhes in control and compound-treated group, respectively (Table 2).
row,SMILES,Analgesic effect (% Inhibition)
1,"C/C(=C\c1ccc(C(C)(C)C)cc1)C(=O)N[C@H](C)c1ccc(NS(C)(=O)=O)cc1 [Example 11, 3-(4-t-Butylphenyl)-N-[1-(R)-(4-methanesulfonylaminophenyl)ethyl]-2-methylacrylamide]",56
2,"C/C(=C\c1ccc(C(C)(C)C)cc1)C(=O)N[C@H](C)c1ccc(NS(C)(=O)=O)c(F)c1 [Example 14, 3-(4-t-Butyl-phenyl)-N-[1-(3-fluoro-4-methanesulfonylaminophenyl)ethyl]-2-methylacrylamide]",42
3,"CC(C)(C)c1ccc(CNC(=O)NCc2ccc(NS(C)(=O)=O)c(F)c2)cc1 [Example 20, N-{4-[3-(4-t-butylbenzyl)ureidomethyl]-2-fluorophenyl}methanesulfonamide]",82
4,"Cc1cc(CNC(=O)NCc2ccc(C(C)(C)C)cc2)ccc1NS(C)(=O)=O [Example 21, N-{4-[3-(4-t-butylbenzyl)ureidomethyl]-2-methylphenyl}methane sulfonamide]",58
5,"Cc1cc(CNC(=O)NCc2ccc(C(C)(C)C)cc2)cc(F)c1NS(C)(=O)=O [Example 29, N-{4-[3-(4-t-Butyl-benzyl)-ureidomethyl]-2-fluoro-6-methyl-phenyl}-methanesulfonamide]",54

# System: not given
# Experiment: not given
# Conditions: not given
row,melting point [°C],SMILES
1,60 to 61,"CC(C)(C)c1ccc(CNC(=O)NCc2ccc(NS(C)(=O)=O)c(Cl)c2)cc1 [Example 22, N-{4-[3-(4-t-butylbenzyl)ureidomethyl]-2-chlorophenyl}methane sulfonamide]"
